Data from patent US20030171345A1 (priority 2001, published 2003).
Read-outs that look alike come from different tables or passages of the source.

What was measured:
[1] = system: estrogen receptor preparations from rat prostates; assay: Competitive 3H-estradiol binding, rat prostate cytosol estrogen receptor; settings: for Rat prost. ER(RBA): 3H-estradiol as ligand, rat prostate cytosol, estradiol = 100
[2] = system: estrogen receptor preparations from rat uteri; assay: Competitive 3H-estradiol binding, rat uterus cytosol estrogen receptor; settings: 3H-estradiol as ligand, estradiol = 100
[3] = system: hERβ; settings: cited from earlier work
[4] = system: hERβ; assay: Relative binding affinity to hERβ (Kuiper et al.); parameters: species or system human; settings: quotient of RBA to ERβ and ERα
From the text: In this case, it is assumed that ERβ predominates in the rat prostates over ERα, and ERα predominates in rat uteri over ERβ.

[5] = relative binding affinity, estradiol = 100

Molecule	Rat prost. ER(RBA) [1]	Rat uterus ER(RBA) [2]	hERβ RBA [3, 5]	prost. ER/uterus ER ([1]; ratio of the binding to prostate and uterus receptors)	ERβ/ERα [4]	hERβ RBA [3]
Estradiol	100	100	100			
C[C@]12CCC(O)CC1=CC[C@@H]1[C@@H]2CC[C@]2(C)C(O)CC[C@@H]12 (stereo partly drawn) [5-Androstene-diol]	5	0.1		50	3	17
C[C@]12CC[C@@H]3c4ccc(O)cc4CC[C@H]3[C@@H]1C[C@@H](O)[C@@H]2O [Estriol]			21			
